“And” between values parts separate entries of the source, which are not always exact repeats. Equal entries are not always repeated. Inconclusive results are not listed.

In PubChem BioAssay AID206 (DTP/NCI, 2004) one finds T/C data, which are given here for 20 compounds.

This experiment has as its system nude mice, HT29 intrarenal xenograft, tumor weight T/C. Briefly: NCI In Vivo Anticancer Drug Screen. Data for tumor model HT29;CX-1 Human Adenocarcinoma (MER+) (intrarenal inoculation) in NU/NU Swiss (nude) mice. Conditions: endpoint: mean tumor weight change, higher = larger tumour. Here is the method: The antitumor activity of compounds was measured in mice bearing transplantable tumors. Survival or tumor size were measured and the results are expressed as the measurement made in the treated group (T) divided by the measurement made in the vehicle treated control group (C). The tumor model used in this assay is HT29;CX-1 Human Adenocarcinoma (MER+) (intrarenal inoculation) in NU/NU Swiss (nude) mice

Turning to `NC(C(=O)O)c1ccc(CBr)cc1` (stereo not given), the T/C is 76 % of control (dose: 50.0 mg/kg/injection, schedule: Q04DX004 (sc), vehicle: acid diluted with saline); 70 % of control (dose: 100.0 mg/kg/injection, schedule: Q04DX004 (sc), vehicle: acid diluted with saline); 65 % of control (dose: 200.0 mg/kg/injection, schedule: Q04DX004 (sc), vehicle: acid diluted with saline); 52 % of control (dose: 400.0 mg/kg/injection, schedule: Q04DX004 (sc), vehicle: acid diluted with saline).

As for `CC(=O)OCC1OC([S-])C(OC(C)=O)C(OC(C)=O)C1OC(C)=O.CC[PH+](CC)CC.CC[PH+](CC)CC.[Au].[Au]` (stereo not given), the T/C (dose: 5.0 mg/kg/injection, schedule: Q04DX004 (sc), vehicle: Klucel (hydroxypropylcellulose) (HPC)) was 177 % of control and the T/C (dose: 10.0 mg/kg/injection, schedule: Q04DX004 (sc), vehicle: Klucel (hydroxypropylcellulose) (HPC)) was 113 % of control.

On to `O=CN(SSN(C=O)C1CCCCC1)C1CCCCC1`, for which the T/C is, setting by setting: (dose: 100.0 mg/kg/injection, schedule: Q01DX010 (sc), vehicle: saline with Tween-80) 36 % of control; (dose: 200.0 mg/kg/injection, schedule: Q01DX010 (sc), vehicle: saline with Tween-80) 178 % of control; (dose: 400.0 mg/kg/injection, schedule: Q01DX010 (sc), vehicle: saline with Tween-80) 85 % of control; (dose: 800.0 mg/kg/injection, schedule: Q01DX010 (sc), vehicle: saline with Tween-80) 90 % of control.

In the case of `Nc1cc2[nH]cnc2c(=O)[nH]1`, the T/C was 62 % of control (dose: 25.0 mg/kg/injection, schedule: Q01DX010 (sc), vehicle: saline) and 112 % of control (dose: 50.0 mg/kg/injection, schedule: Q01DX010 (sc), vehicle: saline).

Consider `O=C(C#Cc1ccccc1)c1ccccc1`, for which the T/C is 71 % of control (dose: 12.5 mg/kg/injection, schedule: Q04DX004 (sc), vehicle: Klucel (hydroxypropylcellulose) (HPC)); 64 % of control (dose: 25.0 mg/kg/injection, schedule: Q04DX004 (sc), vehicle: Klucel (hydroxypropylcellulose) (HPC)); 88 % of control (dose: 50.0 mg/kg/injection, schedule: Q04DX004 (sc), vehicle: Klucel (hydroxypropylcellulose) (HPC)); 76 % of control (dose: 100.0 mg/kg/injection, schedule: Q04DX004 (sc), vehicle: Klucel (hydroxypropylcellulose) (HPC)).

With `OC(CCl)CN1CC[N+]2(CC1)CC[N+]1(CCN(CC(O)CCl)CC1)CC2` (stereo not given), the T/C runs as follows: (dose: 32.0 mg/kg/injection, schedule: Q01DX010 (sc), vehicle: water) 245 % of control; (dose: 64.0 mg/kg/injection, schedule: Q01DX010 (sc), vehicle: water) 59 % of control; (dose: 128.0 mg/kg/injection, schedule: Q01DX010 (sc), vehicle: water) 108 % of control; (dose: 256.0 mg/kg/injection, schedule: Q01DX010 (sc), vehicle: water) 35 % of control.

As to `O=C(NO)c1cc(O)c(O)c(O)c1`, the T/C is 83 % of control (dose: 200.0 mg/kg/injection, schedule: Q04DX004 (sc), vehicle: water); 60 % of control (dose: 400.0 mg/kg/injection, schedule: Q04DX004 (sc), vehicle: water); 56 % of control (dose: 800.0 mg/kg/injection, schedule: Q04DX004 (sc), vehicle: water); 71 % of control (dose: 1600.0 mg/kg/injection, schedule: Q04DX004 (sc), vehicle: water).

For `CC(=O)[O][Pb]([O]C(C)=O)([c]1ccccc1)[c]1ccccc1`, the T/C (dose: 250.0 mg/kg/injection, schedule: Q04DX004 (sc), vehicle: Klucel (hydroxypropylcellulose) (HPC)) is 120 % of control; the T/C (dose: 500.0 mg/kg/injection, schedule: Q04DX004 (sc), vehicle: Klucel (hydroxypropylcellulose) (HPC)) was 64 % of control; the T/C (dose: 1000.0 mg/kg/injection, schedule: Q04DX004 (sc), vehicle: Klucel (hydroxypropylcellulose) (HPC)) is 44 % of control; the T/C (dose: 2000.0 mg/kg/injection, schedule: Q04DX004 (sc), vehicle: Klucel (hydroxypropylcellulose) (HPC)) is 118 % of control.

As for `N#Cc1cn(C2OC(CO)C(O)C2O)c2ncnc(N)c12` (stereo not given), the T/C by setting is: (dose: 0.13 mg/kg/injection, schedule: Q01DX010 (sc), vehicle: saline) 81 % of control; (dose: 0.25 mg/kg/injection, schedule: Q01DX010 (sc), vehicle: saline) 171 % of control.

As to `CCSC(=O)N1c2ccc(OC)cc2C=CC1C#N` (stereo not given), the T/C runs as follows: (dose: 600.0 mg/kg/injection, schedule: Q04DX004 (sc), vehicle: saline with Tween-80) 93 % of control; (dose: 1200.0 mg/kg/injection, schedule: Q04DX004 (sc), vehicle: saline with Tween-80) 84 % of control; (dose: 2400.0 mg/kg/injection, schedule: Q04DX004 (sc), vehicle: saline with Tween-80) 53 % of control.

Regarding `Oc1ccccc1C=NCCC[N-]CCCN=Cc1ccccc1O.[Co]`, the T/C runs as follows: (dose: 25.0 mg/kg/injection, schedule: Q01DX010 (sc), vehicle: suspension in saline) 109 % of control; (dose: 100.0 mg/kg/injection, schedule: Q01DX010 (sc), vehicle: suspension in saline) 73 % of control and 76 % of control.

For `CSC1SCC2C(=O)N(C)C(C(C)C)C(=O)OCC(NC(=O)c3cnc4ccccc4n3)C(=O)NC(C)C(=O)N(C)C1C(=O)N(C)C(C(C)C)C(=O)OCC(NC(=O)c1cnc3ccccc3n1)C(=O)NC(C)C(=O)N2C` (stereo not given), the T/C is 88 % of control (dose: 30.0 micrograms/kg/injection, schedule: Q01DX010 (sc), vehicle: suspension in saline); 49 % of control (dose: 60.0 micrograms/kg/injection, schedule: Q01DX010 (sc), vehicle: saline); 35 % of control (dose: 120.0 micrograms/kg/injection, schedule: Q01DX010 (sc), vehicle: saline); 12 % of control (dose: 240.0 micrograms/kg/injection, schedule: Q01DX010 (sc), vehicle: saline).

For `C/C=C1\C[C@@H]2C(OC)Nc3cc(O)c(OC)cc3C(=O)N2C1` (stereo not given in full), the T/C (dose: 0.25 mg/kg/injection, schedule: Q04DX004 (sc), vehicle: saline) is 113 % of control; the T/C (dose: 0.5 mg/kg/injection, schedule: Q04DX004 (sc), vehicle: saline) was 93 % of control; the T/C (dose: 2.0 mg/kg/injection, schedule: Q04DX004 (sc), vehicle: saline) was 75 % of control.

For the compound `CSCS(=O)C[C@H](CO)NC(=O)/C=C/c1c(C)[nH]c(=O)[nH]c1=O` (stereo not given in full), the T/C is 111 % of control (dose: 0.75 mg/kg/injection, schedule: Q04DX004 (sc), vehicle: saline) and 81 % of control (dose: 1.5 mg/kg/injection, schedule: Q04DX004 (sc), vehicle: saline).

As for `COc1cc2cc(c1Cl)N(C)C(=O)C[C@H](OC(=O)[C@H](C)N(C)C(C)=O)[C@]1(C)O[C@H]1[C@H](C)[C@@H]1C[C@@](O)(NC(=O)O1)[C@H](OC)C=C/C=C(\C)C2`, the T/C is, setting by setting: (dose: 50.0 micrograms/kg/injection, schedule: Q01DX010 (sc), vehicle: Klucel (hydroxypropylcellulose) (HPC)) 40 % of control; (dose: 100.0 micrograms/kg/injection, schedule: Q01DX010 (sc), vehicle: Klucel (hydroxypropylcellulose) (HPC)) 93 % of control; (dose: 200.0 micrograms/kg/injection, schedule: Q01DX010 (sc), vehicle: Klucel (hydroxypropylcellulose) (HPC)) 24 % of control.

For the compound `CCc1ncnc2cc(OCC3CO3)c(OC)cc12` (stereo not given), the T/C (dose: 25.0 mg/kg/injection, schedule: Q04DX004 (sc), vehicle: saline) was 69 % of control; the T/C (dose: 50.0 mg/kg/injection, schedule: Q04DX004 (sc), vehicle: saline) was 36 % of control; the T/C (dose: 100.0 mg/kg/injection, schedule: Q04DX004 (sc), vehicle: saline) is 80 % of control.

As for `COc1ccc(CC2C(=O)NC(C)C(=O)N(C)C3C(=O)N(C)C(Cc4ccc(O)c(c4)Oc4ccc(cc4)C3O)C(=O)NC(C)C(=O)NC(C)C(=O)N2C)cc1` (stereo not given), the T/C (dose: 0.25 mg/kg/injection, schedule: Q01DX010 (sc), vehicle: saline with Tween-80) was 94 % of control.

On to `C=C(C)[C@H]1Cc2c(ccc3c2O[C@@H]2COc4cc(OC)c(OC)cc4[C@@H]2C3=O)O1`, for which the T/C reads like this: (dose: 2.0 mg/kg/injection, schedule: Q01DX010 (sc), vehicle: saline with Tween-80) 161 % of control; (dose: 4.0 mg/kg/injection, schedule: Q01DX010 (sc), vehicle: saline with Tween-80) 29 % of control; (dose: 8.0 mg/kg/injection, schedule: Q01DX010 (sc), vehicle: saline with Tween-80) 57 % of control.

As to `CN(C)N=Nc1cn[nH]c1C(N)=O`, the T/C is 85 % of control (dose: 300.0 mg/kg/injection, schedule: Q04DX004 (sc), vehicle: suspension in saline); 67 % of control (dose: 600.0 mg/kg/injection, schedule: Q04DX004 (sc), vehicle: suspension in saline); 74 % of control (dose: 1200.0 mg/kg/injection, schedule: Q04DX004 (sc), vehicle: suspension in saline).

Turning to `Cc1ccc(S(=O)(=O)N/N=C/C(Br)=C(/Br)C(=O)O)cc1`, the T/C reads like this: (dose: 150.0 mg/kg/injection, schedule: Q04DX004 (sc), vehicle: Klucel (hydroxypropylcellulose) (HPC)) 47 % of control; (dose: 300.0 mg/kg/injection, schedule: Q04DX004 (sc), vehicle: Klucel (hydroxypropylcellulose) (HPC)) 55 % of control; (dose: 600.0 mg/kg/injection, schedule: Q04DX004 (sc), vehicle: Klucel (hydroxypropylcellulose) (HPC)) 22 % of control.
